Results published in paper PMC4645123, “Catestatin attenuates endoplasmic reticulum induced cell apoptosis by activation type 2 muscarinic acetylcholine receptor in cardiac ischemia/reperfusion” (Scientific Reports, 2015).

Columns and labels:
H9c2 cells = assay: cAMP assay (cAMP-Glo Max Assay Kit); format: cell-based, rat; settings: for effect of antagonist on CST lowering of isoproterenol-induced cAMP / effect of antagonist on CST lowering of forskolin-induced cAMP: AF-DX116 100 nM or himbacine 1 μM 20 min; for effect of antagonist on CST lowering of isoproterenol-induced cAMP: then CST 50 nM with isoproterenol 1 μM; for effect of antagonist alone on increased cAMP level with isoproterenol: AF-DX116 100 nM or himbacine 1 μM, 20 min pretreatment, isoproterenol 1 μM; for effect of antagonist on CST lowering of forskolin-induced cAMP: pirenzepine 1 μM, then CST 50 nM with forskolin 100 μM
Experimental: H9c2 cells were subcultured at 1 x 10^4 cells in 96-well plates. Cell were pretreated with […]
pirenzepine (1 μM), AF-DX116 (100 nM) or himbacine (1 μM) for 20 min, then incubated with CST (50 nM) or carbamoylcholine (100 μM) along with isoproterenol (1 μM) or forskolin (100 μM) for 30 min. Cell underwent cAMP assay with the cAMP-Glo Max Assay

[1] = test system: ischemic-reperfused rat heart; settings: peptide 100 nM treatment for 2 h during reperfusion phase; cited from earlier work
Experimental: Firstly we identified the endogenous CST reducing after I/R, but its precursor ChgA expression were no changes. That means increased enzymes (which catalyzed ChgA to generate CST) activity during I/R, although the enzymes were not identified until now. CST pretreatment compensated to endogenous CST decrease, thus lowered the infarct size and improved cardiac function in rats under I/R, which agreed with studies of CST post-conditioning[16][17]. However, human wild type CST (100 nM) treatment for 2 h during reperfusion phase increased, but Gly^364Ser variant peptide lowered infarct size; becaus ...

H9c2 cardiomyoblasts = assay: Apoptosis (cleaved caspase-3 staining) in cells under A/R or ER stress inducers; format: cell-based, rat; settings: PD98059 20 μM or wortmannin 10 nM for 30 min, then CST 100 nM 30 min
Experimental: H9c2 rat cardiomyoblasts or neonatal cardiomyocytes were cultured in DMEM with 10% fetal bovine serum (FBS) and 1% penicillin/streptomycin at 37 °C, 5% CO2. Medium was changed to fresh medium (serum-free), and cells were cultured under anoxia with 95% N2 and 5% CO2 for 12 h at 37 °C, then incubated in a standard incubator for 4 h (A/R)[38]. […] page 1: Catestatin attenuates endoplasmic reticulum induced cell apoptosis by activation type 2 muscarinic acetylcholine receptor in cardiac ischemia/reperfusion Feng Liao1*, Yang Zheng1*, Junyan Cai1, Jinghui Fan1, Jing Wang1, Jichun Yang1,2, Qinghua Cui1,2, Guoheng Xu1, Chaoshu Tang1, Bin Geng1,2 1. Department of Physiology and Pathophysiology, School of Basic Medical Science, Peking University, P.R. China. 2. Center for Noncoding RNA Medicine, Peking University Health Science Center Online Methods 1. Western blot analysis Cultured H9c2 cells or rat hearts were lysed in RIPA lysis buffer (Cell Signaling). Proteins were denatured and 50 μg protein was loaded and isolated by SDS-PAGE electrophoresis, then transferred to a nitrocellulose membrane. […] The antigens were detected by the chemiluminescence method (ECL western blot detection kit, Applygen) with horseradish peroxidase-linked anti-mouse or anti-rabbit secondary antibody. […] Images were captured by fluorescence microscopy and apoptotic cells were analyzed by use of Image-Pro Plus. […]

isolated heart = assay: Langendorff-perfused heart, global ischemia/reperfusion (I/R) with CST pretreatment; parameters: species or system rat; settings: AF-DX116 pretreating for 20 min before CP, then I/R
Experimental: Rats fed a standard diet were heparinized (200 IU) and anesthetized with sodium pentobarbital (50 mg/kg, intraperitoneally). Hearts were excised and rapidly moved to a Langendorff perfusion system as described. After 30-min stabilization, hearts underwent 30-min normoxia, zero-flow global ischemia for 30 min, followed by 60-min reperfusion (I/R group). For the CP group, CST (100 nM) was infused for 15 min before ischemia (Fig. 1A). Cardiac function including left ventricular end diastolic pressure (LVEDP), LV systolic pressure (LVSP), and maximal and minimal LV pressure development (±dp/dtmax) were recorded. […] Images in each slice were analyzed by image pro plus software. The volume of infarcted tissue (white) and the risk zone (total) was then calculated by each area […] slice thickness and summing the results. The infarct size was expressed as the percentage of the risk zone[36]. Total 12 rats were sacrificed for the infarct size assay. Other rats, while finished I/R procedure, the apex of heart (about 100 mg) was quickly removed for western blot assay. The residual heart were cut about 5 mm high (from the site of apex), embedded with OCT then the frozen slice were prepared for apoptosis staining (Methods of western blot and apoptosis assay are available in the Supplementary methods online).

M2 receptors = settings: no reference given; cited from earlier work
Experimental: To investigate the interaction of CST with M2 receptor and as an endogenous ligand, we used radioactive isotope [^125-I]-labeled CST (0.4 μM) as a ligand, and N-methylscopolamine (NMS:0.045 nM to 0.3 μM) as a “cold” ligand were co-incubated with membrane protein (200 μg) in H9c2 cardiomyblasts.

M2 receptor = settings: read-out: KD values, binding ability to M2 receptor; cited from earlier work
Text: Muscarinic receptor expression is abundant in ventricular muscle. Acetylcholine has protective role in cardiac I/R in vitro, but it is non-selective ligand and activates all cholinergic receptor subtype, which limited its application due to enormous side effects. Here we identified that CST is a selective ligand of M2 receptor with high affinity and its intracellular signal (cAMP, PI3 K and ERK1/2) is consistent with M2 receptor agonist.

[2] = molecular target: T1, M2 muscarinic acetylcholine receptor (Rattus norvegicus, UniProt P10980); assay: radioligand competition binding
T1 chain: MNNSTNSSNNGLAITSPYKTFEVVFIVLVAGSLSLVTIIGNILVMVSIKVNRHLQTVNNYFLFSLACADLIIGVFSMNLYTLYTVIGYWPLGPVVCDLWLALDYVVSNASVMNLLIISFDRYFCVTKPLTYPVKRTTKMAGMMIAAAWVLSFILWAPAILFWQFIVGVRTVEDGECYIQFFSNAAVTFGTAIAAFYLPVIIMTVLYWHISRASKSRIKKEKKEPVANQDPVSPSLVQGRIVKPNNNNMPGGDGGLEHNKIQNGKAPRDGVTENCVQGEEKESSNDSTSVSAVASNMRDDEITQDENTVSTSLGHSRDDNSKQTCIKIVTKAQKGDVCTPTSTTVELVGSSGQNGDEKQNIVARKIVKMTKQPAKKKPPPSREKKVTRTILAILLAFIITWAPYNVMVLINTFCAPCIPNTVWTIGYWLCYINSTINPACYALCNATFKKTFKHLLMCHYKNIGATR

[3] = molecular target: T1, M2 muscarinic acetylcholine receptor; assay: radioligand binding (Scatchard)

C[N+](C)(C)CCOC(N)=O [carbamoylcholine]
cAMP level induced by isoproterenol (H9c2 cells; CST 50 nM or carbamoylcholine 100 μM with isoproterenol 1 μM for 30 min): lowered

Gly^364Ser variant peptide: Gly364Ser variant of human catestatin
infarct size [1]: lowered

C[C@@H]1OC(=O)[C@H]2C[C@H]3CCCC[C@@H]3[C@@H](/C=C/[C@H]3CCC[C@H](C)N3C)[C@@H]12 [himbacine]
effect of antagonist on CST lowering of isoproterenol-induced cAMP (H9c2 cells): blocked | effect of antagonist alone on increased cAMP level with isoproterenol (H9c2 cells): did not affect | effect of antagonist on CST lowering of forskolin-induced cAMP (H9c2 cells): blocked

COC[C@H]1OC(=O)c2coc3c2[C@@]1(C)C1=C(C3=O)[C@@H]2CCC(=O)[C@@]2(C)C[C@H]1OC(C)=O [wortmannin]
effect of inhibitor on CST protection on cell apoptosis (H9c2 cardiomyoblasts): reversed

CCN(CC)CC1CCCCN1CC(=O)N1c2ccccc2C(=O)Nc2cccnc21 (centres unmarked) [AF-DX116, Otenzepad]
effect on the protective effects of CP on infarct size, LDH leakage and cTNI level (isolated heart): blocked | effect of antagonist on CST lowering of isoproterenol-induced cAMP (H9c2 cells): blocked | effect of antagonist alone on increased cAMP level with isoproterenol (H9c2 cells): did not affect | effect of antagonist on CST lowering of forskolin-induced cAMP (H9c2 cells): blocked | IC50 (M2 receptors): 50 nM

COc1ccc2cc3[n+](cc2c1OC)CCc1cc2c(cc1-3)OCO2 [Berberine]
Kd (M2 receptor): 5400 nM

COc1cccc(-c2cc(=O)c3ccccc3o2)c1N [PD98059]
effect of inhibitor on CST protection on cell apoptosis (H9c2 cardiomyoblasts): reversed

SSMKLSFRARGYGFRGPGPQL (AF-DX116 50 nM)
IC50 [2]: 36 nM | Kd [3]: 45.8 nM

SSMKLSFRARGYGFRGPGPQL
IC50 [2]: 25.7 nM | Kd [3]: 18.6 nM
